Assay: Stability of -PH2 compounds under storage and reaction conditions
Format: physicochemical
Settings: variety of solvents, wide pH range and temperature range
From the text: As a result of working with the NH2(CH2)3 PH2 intermediate, it was recognized that the intermediate was unexpectedly stable under a variety of storage and reaction conditions.
Furthermore, the reactivity of the —PH2 groups in these compounds toward molecules containing a wide spectrum of functional groups (including carboxylic acids, amines, thiols, and proteins) was remarkably low or non-measurable.

## NCCCP [NH2(CH2)3 PH2, 3-Aminopropylphosphine]
  stability under storage and reaction conditions: reasonably stable
